The values that follow come from patent publication US10544130B2, “Metallo-beta-lactamase inhibitors” (priority 2015, dated 2020).

The test system of series [1] is Escherichia coli expressing NDM-1 (CLB30005, CLB30016). It is filed as cell-based. The conditions noted are these: with imipenem 1 μg/ml; 95% inhibition of bacterial growth. The method, boiled down:
(§1)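 Growth read by absorbance after 22–24 h at 35 °C in CAMHB, with test compound alone or combined with 1 μg/ml imipenem. Inocula came from overnight 35 °C blood-agar colonies, set to a defined OD600 and diluted 1:100. Value is the inhibitor concentration giving synergy.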

Series [2] deals with Serratia marcescens expressing IMP-1 (CL5741). It is filed as cell-based. The conditions noted are these: with imipenem 1 μg/ml; 95% inhibition of bacterial growth. The method, boiled down: as §1
Series [3] deals with Pseudomonas aeruginosa PAO1 MB9798 (efflux+, IMP-1). The conditions noted are these: ratio MITC95 PA 9798/MITC95 PA 9799; imipenem at 2 μg/mL. The method, boiled down:
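Isogenic PAO1 pair (efflux+ MB9798, efflux− MB9799, both IMP-1) tested by microbroth MIC with fixed imipenem and/or ceftazidime, usually at CLSI breakpoint, plus fixed class A/C inhibitor against AmpC. MBL inhibitor titrated; concentration restoring susceptibility recorded and fold difference between strains taken as efflux extent.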

As to `Nc1nc2c(-c3ccc(S(=O)(=O)NC[C@@]4(N)CCNC4)c(S(N)(=O)=O)c3-c3nn[nH]n3)cccc2[nH]1` [Example 251, (R)-4-(2-amino-1H-benzo[d]imidazol-4-yl)-N1-((3-aminopyrrolidin-3-yl)methyl)-3-(2H-tetrazol-5-yl)benzene-1,2-disulfonamide], in series [1], the “Escherichia coli (NDM-1) MITC95” value worked out at 0.7813 µM. The “Serratia marcescens (IMP-1) MITC95” value in series [2] was 0.7813 µM. Further, in series [3], the Efflux ratio came out at 1.00.
As to `NCCCNC(=O)c1cccc(-c2ccc(S(=O)(=O)NCCN)c(S(N)(=O)=O)c2-c2nn[nH]n2)c1` [Example 341, 4′-(N-(2-aminoethyl)sulfamoyl)-N-(3-aminopropyl)-3′-sulfamoyl-2′-(2H-tetrazol-5-yl)-[1,1′-biphenyl]-3-carboxamide], the “Escherichia coli (NDM-1) MITC95” value in series [1] came to 0.7813 µM. For the same compound, in series [2], the “Serratia marcescens (IMP-1) MITC95” value amounted to 1.563 µM. For the same compound, the Efflux ratio in series [3] was determined as 2.00.
With `NCc1nc2c(-c3ccc(S(=O)(=O)NC(CN)CN)c(S(N)(=O)=O)c3-c3nn[nH]n3)cccc2[nH]1` [Example 385, 4-(2-(Aminomethyl)-1H-benzo[d]imidazol-4-yl)-N1-(1,3-diaminopropan-2-yl)-3-(2H-tetrazol-5-yl)benzene-1,2-disulfonamide], the “Escherichia coli (NDM-1) MITC95” value in series [1] amounted to 0.7813 µM. For the same compound, the “Serratia marcescens (IMP-1) MITC95” value in series [2] was 0.7813 µM. For the same compound, the Efflux ratio in series [3] is on record as 1.00.
Consider `NCc1nc2c(-c3ccc(S(=O)(=O)N[C@@H](CN)CO)c(S(N)(=O)=O)c3-c3nn[nH]n3)cccc2s1` [Example 381, (S)—N1-(1-amino-3-hydroxypropan-2-yl)-4-(2-(aminomethyl)benzo[d]thiazol-4-yl)-3-(2H-tetrazol-5-yl)benzene-1,2-disulfonamide], for which, in series [1], the “Escherichia coli (NDM-1) MITC95” value turned out to be 0.7813 µM. Moreover, the “Serratia marcescens (IMP-1) MITC95” value in series [2] was found to be 1.172 µM. Moreover, the Efflux ratio in series [3] is on record as 1.50.
For the compound `Nc1ncc(-c2ccc(S(=O)(=O)N[C@@H]3CNC[C@@H]3N)c(S(N)(=O)=O)c2-c2nn[nH]n2)s1` [Example 321, N^1-((3R,4S)-4-aminopyrrolidin-3-yl)-4-(2-aminothiazol-5-yl)-3-(2H-tetrazol-5-yl)benzene-1,2-disulfonamide], the “Escherichia coli (NDM-1) MITC95” value in series [1] is 0.7813 µM. The “Serratia marcescens (IMP-1) MITC95” value in series [2] came to 1.563 µM. The Efflux ratio in series [3] worked out at 2.00.
Take `NC(=O)c1nc2c(-c3ccc(S(=O)(=O)N[C@@H]4CCNC4)c(S(N)(=O)=O)c3-c3nn[nH]n3)cccc2[nH]1` [Example 271, (R)-4-(4-(N-(pyrrolidin-3-yl)sulfamoyl)-3-sulfamoyl-2-(2H-tetrazol-5-yl)phenyl)-1H-benzo[d]imidazole-2-carboxamide]: the “Escherichia coli (NDM-1) MITC95” value in series [1] came out at 1.563 µM. For the same compound, the “Serratia marcescens (IMP-1) MITC95” value in series [2] is 0.7813 µM. The Efflux ratio in series [3] was determined as 0.50.
For `CNc1nc2c(-c3ccc(S(=O)(=O)N[C@@H]4CCNC4)c(S(N)(=O)=O)c3-c3nn[nH]n3)cccc2[nH]1` [Example 280, (R)-4-(2-(methylamino)-1H-benzo[d]imidazol-4-yl)-N1-(pyrrolidin-3-yl)-3-(2H-tetrazol-5-yl)benzene-1,2-disulfonamide] the same measures were 0.7813 µM, 0.7813 µM and 0.50.
For `NC[C@H](CO)NS(=O)(=O)c1ccc(-c2cccc(N)n2)c(-c2nn[nH]n2)c1S(N)(=O)=O` [Example 364, (R)—N^1-(1-amino-3-hydroxypropan-2-yl)-4-(6-aminopyridin-2-yl)-3-(2H-tetrazol-5-yl)benzene-1,2-disulfonamide] the same measures were 3.125 µM, 3.125 µM and 2.00.
The matching figures for `CNc1ccc(-c2ccc(S(=O)(=O)N[C@@H]3CCNC3)c(S(N)(=O)=O)c2-c2nn[nH]n2)cn1` [Example 242]: 0.7813 µM, 0.7813 µM and 1.00.
Regarding `NS(=O)(=O)c1c(S(=O)(=O)N[C@@H]2CCNC2)ccc(-c2cnc3cc[nH]c3c2)c1-c1nn[nH]n1` [Example 282, (R)-N1-(pyrrolidin-3-yl)-4-(1H-pyrrolo[3,2-b]pyridin-6-yl)-3-(2H-tetrazol-5-yl)benzene-1,2-disulfonamide], in series [1], the “Escherichia coli (NDM-1) MITC95” value came to 0.7813 µM. In addition, the “Serratia marcescens (IMP-1) MITC95” value in series [2] stood at 0.7813 µM. Also, the Efflux ratio in series [3] is reported as 1.00.
For the compound `N[C@H]1CNC[C@H]1NS(=O)(=O)c1ccc(-c2cnc3cc[nH]c3c2)c(-c2nn[nH]n2)c1S(N)(=O)=O` [Example 320], the “Escherichia coli (NDM-1) MITC95” value in series [1] stood at 0.7813 µM. Besides, the “Serratia marcescens (IMP-1) MITC95” value in series [2] is 0.7813 µM. In addition, in series [3], the Efflux ratio came to 2.00.
With `NC[C@@H](N)CNS(=O)(=O)c1ccc(-c2cnc(N)s2)c(-c2nn[nH]n2)c1S(N)(=O)=O` [Example 377, (R)-4-(2-aminothiazol-5-yl)-N1-(2,3-diaminopropyl)-3-(2H-tetrazol-5-yl)benzene-1,2-disulfonamide], in series [1], the “Escherichia coli (NDM-1) MITC95” value was determined as 0.7813 µM. Further, in series [2], the “Serratia marcescens (IMP-1) MITC95” value was found to be 1.563 µM. The Efflux ratio in series [3] came to 2.00.
For `Nc1ncc(-c2ccc(S(=O)(=O)N[C@H]3CNC[C@H]3N)c(S(N)(=O)=O)c2-c2nn[nH]n2)s1` [Example 325, N1-((3S,4R)-4-aminopyrrolidin-3-yl)-4-(2-aminothiazol-5-yl)-3-(2H-tetrazol-5-yl)benzene-1,2-disulfonamide] the same measures were 0.7813 µM, 1.563 µM and 2.00.
Turning to `CNc1nc2c(-c3ccc(S(=O)(=O)N[C@H]4CCNC4)c(S(N)(=O)=O)c3-c3nn[nH]n3)cccc2[nH]1` [Example 295, (S)-4-(2-(methylamino)-1H-benzo[d]imidazol-4-yl)-N1-(pyrrolidin-3-yl)-3-(2H-tetrazol-5-yl)benzene-1,2-disulfonamide], in series [1], the “Escherichia coli (NDM-1) MITC95” value was 0.7813 µM. In addition, in series [2], the “Serratia marcescens (IMP-1) MITC95” value amounted to 0.7813 µM. Also, the Efflux ratio in series [3] was found to be 1.00.
On to `NCCNS(=O)(=O)c1ccc(-c2cccc(SCC(N)CO)c2)c(-c2nn[nH]n2)c1S(N)(=O)=O` (centres unmarked) [Example 354, 3′-((2-amino-3-hydroxypropyl)thio)-N4-(2-aminoethyl)-2-(2H-tetrazol-5-yl)-[1,1′-biphenyl]-3,4-disulfonamide], for which, in series [1], the “Escherichia coli (NDM-1) MITC95” value is 0.3906 µM. Further, the “Serratia marcescens (IMP-1) MITC95” value in series [2] stood at 1.563 µM. For the same compound, the Efflux ratio in series [3] came out at 4.00.
For `NCC(CO)(CO)NS(=O)(=O)c1ccc(-c2cccc3[nH]c(N)nc23)c(-c2nn[nH]n2)c1S(N)(=O)=O` [Example 247, 4-(2-amino-1H-benzo[d]imidazol-4-yl)-N-1-(1-amino-3-hydroxy-2-(hydroxymethyl)propan-2-yl)-3-(2H-tetrazol-5-yl)benzene-1,2-disulfonamide] the same measures were 0.7813 µM, 1.563 µM and 2.00.
Regarding `Nc1nc2c(-c3ccc(S(=O)(=O)NC[C@@H]4CNCCN4)c(S(N)(=O)=O)c3-c3nn[nH]n3)cccc2[nH]1` [Example 310, (S)-4-(2-amino-1H-benzo[d]imidazol-4-yl)-N1-(piperazin-2-ylmethyl)-3-(2H-tetrazol-5-yl)benzene-1,2-disulfonamide], in series [1], the “Escherichia coli (NDM-1) MITC95” value turned out to be 0.7813 µM. In addition, the “Serratia marcescens (IMP-1) MITC95” value in series [2] turned out to be 0.7813 µM. Moreover, the Efflux ratio in series [3] was found to be 1.00.
For the compound `Nc1ccc(-c2ccc(S(=O)(=O)NC3CNC3)c(S(N)(=O)=O)c2-c2nn[nH]n2)cn1` [Example 493, 4-(6-aminopyridin-3-yl)-N1-(azetidin-3-yl)-3-(2H-tetrazol-5-yl)benzene-1,2-disulfonamide], in series [1], the “Escherichia coli (NDM-1) MITC95” value turned out to be 0.3906 µM. Further, the “Serratia marcescens (IMP-1) MITC95” value in series [2] came to 0.3906 µM.
On to `NC[C@H](O)CNS(=O)(=O)c1ccc(-c2cccc3[nH]c(N)nc23)c(-c2nn[nH]n2)c1S(N)(=O)=O` [Example 304, (S)-4-(2-amino-1H-benzo[d]imidazol-4-yl)-N1-(3-amino-2-hydroxypropyl)-3-(2H-tetrazol-5-yl)-benzene-1,2-disulfonamide], for which the “Escherichia coli (NDM-1) MITC95” value in series [1] stood at 0.3906 µM. In series [2], the “Serratia marcescens (IMP-1) MITC95” value stood at 0.7813 µM. Further, the Efflux ratio in series [3] was found to be 0.50.
Take `NS(=O)(=O)c1c(S(=O)(=O)N[C@@H]2CNC[C@@H]2O)ccc(-c2cccc3[nH]nnc23)c1-c1nn[nH]n1` [Example 412, 4-(1H-benzo[d][1,2,3]triazol-4-yl)-N^1-((3R,4S)-4-hydroxypyrrolidin-3-yl)-3-(2H-tetrazol-5-yl)benzene-1,2-disulfonamide]: the “Escherichia coli (NDM-1) MITC95” value in series [1] was determined as 3.125 µM. For the same compound, the “Serratia marcescens (IMP-1) MITC95” value in series [2] is 3.125 µM.
For `C[C@H](N)Cc1nc2c(-c3ccc(S(N)(=O)=O)c(S(N)(=O)=O)c3-c3nn[nH]n3)cccc2[nH]1` [Example 442, (S)-4-(2-(2-aminopropyl)-1H-benzo[d]imidazol-4-yl)-3-(2H-tetrazol-5-yl)benzene-1,2-disulfonamide], in series [1], the “Escherichia coli (NDM-1) MITC95” value stood at 1.563 µM. Moreover, the “Serratia marcescens (IMP-1) MITC95” value in series [2] is 1.563 µM.
Turning to `C[C@@H](CN)NS(=O)(=O)c1ccc(-c2ccnc(N)c2)c(-c2nn[nH]n2)c1S(N)(=O)=O` [Example 398, (S)-N^1-(1-aminopropan-2-yl)-4-(2-aminopyridin-4-yl)-3-(2H-tetrazol-5-yl)benzene-1,2-disulfonamide], in series [1], the “Escherichia coli (NDM-1) MITC95” value stood at 3.125 µM. Further, the “Serratia marcescens (IMP-1) MITC95” value in series [2] amounted to 1.563 µM.
